The record followed here is patent US20210254056A1, “IDENTIFICATION AND TARGETED MODULATION OF GENE SIGNALING NETWORKS” (CAMP4 THERAPEUTICS CORPORATION, priority 2017, published 2021).

The test system of data set [1] is Hematopoietic progenitor CD34+ cells. Description: qRT-PCR after inducible (pTRIPZ) shRNA knockdown in CD34+ cells. It is filed as cell-based, human. To be noted: for RQ, BAG1: relative quantification of BAG1 expression vs puro_shNT; for RQ, BAG1 / RQ, BAX / RQ, GATA1 / RQ, GATA2 / RQ, MDM2: pTRIPZ dox inducible shRNA, B-Actin internal control, Table 81; for RQ, BAX: relative quantification of BAX expression vs puro_shNT; for RQ, GATA1: relative quantification of GATA1 expression vs puro_shNT; for RQ, GATA2: relative quantification of GATA2 expression vs puro_shNT; for RQ, HBB: relative quantification of HBB expression vs puro_shNT; for RQ, HBB / RQ, RPL11 / RQ, RPS19 / RQ, p21 / RQ, p53: inducible pTRIPZ shRNA, CD34+ cells, B-ACTIN, Table 80; for RQ, MDM2: relative quantification of MDM2 expression vs puro_shNT; for RQ, RPL11: relative quantification of RPL11 expression vs puro_shNT; for RQ, RPS19: relative quantification of RPS19 expression vs puro_shNT; for RQ, p21: relative quantification of p21 expression vs puro_shNT; for RQ, p53: relative quantification of p53 expression vs puro_shNT. On the procedure:
Conditionally immortalized cord blood CD34+ cells were transduced with the shRNA lentiviruses using the retronectin-transduction protocol (Clontech). Puromycin selection was performed 24-48 hours post-transduction. Cells were counted to monitor cell viability. After 12 days, which allowed for a large biomass, knockdown efficiency was analyzed. qRT-PCR was used to identify changes in mRNA, and Western blot was used to determine levels of protein depletion.
For RNA extraction, 1×10^6 cells were harvested in 500 μL of TRIZOL reagent (Thermo Scientific), and incubated for 5 minutes at room temperature. Then, 100 μL of chloroform was added to the cells, and the mixture was vortexed and then centrifuged at 12,000× gravity for 15 minutes. The aqueous phase was transferred to fresh tubes and one volume of 70% ethanol was added. The TRIZOL Plus RNA purification Kit (Thermo Scientific) was used for the remaining extraction protocol according to the manufacturer's instructions. For the conversion of RNA to cDNA the High Capacity cDNA RT kit (Thermo Scientific) was used according to the manufacturer's instructions. The cDNA was analyzed with qRT-PCR to determine the fold change of knockdown cells using Taqman Fast PCR mix and Applied Biosystems probes (Thermo Scientific).
shRNAs targeting RPS19, p53, or RPL11 were delivered to normal cord blood erythroblast cells using either the pLKO (constitutive) and pTRIPZ (inducible) plasmids described in Example 1. The mRNA expression of the p53 pathway proteins; progenitor factor GATA2; and differentiation factors HBB and GATA1 were measured by qRT-PCR. Cells not transduced with a shRNA as well as cells transduced with a non-targeting shRNA served as controls.
Hematopoietic progenitor CD34^+ cells were transduced with the pTRIPZ inducible lentiviral plasmids containing p53_sh1, puro_shNT, RPL11_1, RPL11_2, RPS19_1, or RPS19_2.
The relative expression of GATA1, GATA2, MDM2, BAX, and BAG1 were also analyzed in cells transduced with a pTRIPZ dox inducible shRNA. B-Actin was used as an internal control.
Background: Quantitative PCR measures a nucleic acid by following its amplification.

In data set [2] the test system is primary human hepatocytes.
Data set [3] relates to primary human hepatocytes. Description: RNA-seq of primary human hepatocytes treated with 39 small molecules (pilot and validation). To be noted: for significant modulation of gene expression: RNA-seq, p-value≤0.05, primary human hepatocytes, the modulated genes are listed in the block; for Number (#) of genes having significantly changed expression: pilot RNA-seq study of Example 2, significance: FPKM≥0.5, log 2(fold change)≥1, q-value ≤0.05.

Data set [4] has as its system hepatocytes. Description: RNA-seq of hepatocytes stimulated with the compounds of Table 68. The note with it: hepatocytes, RNA-seq.
The subject of data set [5] is hepatocytes. Description: qRT-PCR validation of the Example 12 RNA-seq results.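 Also: Compound-treated versus DMSO control, target Ct normalized to GAPDH or β-actin reference (ΔΔCt method), positive values mean higher expression than DMSO.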

With “RPS19_1 (guide TAGAACCAGTTCTCATCGTA; chemistry not fully specified; listed as Homo sapiens)”, in data set [1], the “RQ, BAG1” value was 1.16; the “RQ, BAX” value was 1.57; the “RQ, GATA1” value was found to be 0.67; the “RQ, GATA2” value is listed as 1.53. In data set [1], the “RQ, HBB” value stood at 0.50; the “RQ, MDM2” value was found to be 2.72; the “RQ, RPL11” value was found to be 1.90; the “RQ, RPS19” value is 0.47. For the same compound, in data set [1], the “RQ, p21” value was found to be 5.87 and the “RQ, p53” value turned out to be 1.66.
As to `COc1ccc(Cc2nccc3cc(OC)c(OC)cc23)cc1OC` [MT-913, Papaverine], in data set [2], the “Log2 fold changes in gene expression: CYP2C19” value is reported as 0.09 and the “Log2 fold changes in gene expression: CYP3A4” value worked out at 0.06. Further, in data set [3], the “significant modulation of gene expression” value was “significantly (p-value≤0.05) modulate” and the “Number (#) of genes having significantly changed expression” value came to 12.
In the case of `CC(C)N(CCC(C(N)=O)(c1ccccc1)c1ccccn1)C(C)C` (stereo not shown) [MT-189, Disopyramide], in data set [2], the “Log2 fold changes in gene expression: CYP2C19” value was 0.18 and the “Log2 fold changes in gene expression: CYP3A4” value was 0.03. For the same compound, in data set [3], the “significant modulation of gene expression” value was “significantly (p-value≤0.05) modulate” and the “Number (#) of genes having significantly changed expression” value is given as 7.
`C[C@]12C=CC(=O)C=C1CC[C@@H]1[C@@H]2C(=O)C[C@@]2(C)[C@H]1CC[C@]2(O)C(=O)CO` [MT-861, Prednisone]: the “Cuffdiff log2fc, AMACR” value in the data set on hepatocytes [4] (log 2 fold change in AMACR gene expression, Cuffdiff) is −1.4. Besides, the “DESeq log2fc, AMACR” value in the data set with hepatocytes [4] (log 2 fold change in AMACR gene expression, DESeq) was −1.24. Besides, in the data set with hepatocytes [4] (log 2 fold change in ARG1 gene expression, Cuffdiff), the “Cuffdiff log2fc, ARG1” value turned out to be 1.48. In addition, the “DESeq log2fc, ARG1” value with hepatocytes [4] (log 2 fold change in ARG1 gene expression, DESeq) was determined as 1.59. In addition, the “Cuffdiff log2fc, CA2” value with hepatocytes [4] (log 2 fold change in CA2 gene expression, Cuffdiff) is −1.05. Also, the “DESeq log2fc, CA2” value in the data set with hepatocytes [4] (log 2 fold change in CA2 gene expression, DESeq) is −0.95. Further, the “Cuffdiff log2fc, CIDEC” value in the data set with hepatocytes [4] (log 2 fold change in CIDEC gene expression, Cuffdiff) was 1.02. Also, the “DESeq log2fc, CIDEC” value with hepatocytes [4] (log 2 fold change in CIDEC gene expression, DESeq) stood at 1.19. Moreover, the “Cuffdiff log2fc, CPS1” value in the data set with hepatocytes [4] (log 2 fold change in CPS1 gene expression, Cuffdiff) stood at 2.14. For the same compound, the “DESeq log2fc, CPS1” value with hepatocytes [4] (log 2 fold change in CPS1 gene expression, DESeq) stood at 2.17. Moreover, the “Cuffdiff log2fc, ENO3” value with hepatocytes [4] (log 2 fold change in ENO3 gene expression, Cuffdiff) is recorded as −1.24. The “DESeq log2fc, ENO3” value in the data set on hepatocytes [4] (log 2 fold change in ENO3 gene expression, DESeq) is recorded as −1.03. Also, the “Cuffdiff log2fc, G6PC” value with hepatocytes [4] (log 2 fold change in G6PC gene expression, Cuffdiff) amounted to 1.02. Also, in the data set with hepatocytes [4] (log 2 fold change in G6PC gene expression, DESeq), the “DESeq log2fc, G6PC” value was determined as 1.03. Moreover, the “Cuffdiff log2fc, GYS2” value with hepatocytes [4] (log 2 fold change in GYS2 gene expression, Cuffdiff) came to 2.21. Further, in the data set on hepatocytes [4] (log 2 fold change in GYS2 gene expression, DESeq), the “DESeq log2fc, GYS2” value is reported as 2.49. In addition, in the data set on hepatocytes [4] (log 2 fold change in HGD gene expression, Cuffdiff), the “Cuffdiff log2fc, HGD” value came to 1.23. Also, the “DESeq log2fc, HGD” value in the data set on hepatocytes [4] (log 2 fold change in HGD gene expression, DESeq) is reported as 1.31. In addition, the “Cuffdiff log2fc, HOGA1” value in the data set on hepatocytes [4] (log 2 fold change in HOGA1 gene expression, Cuffdiff) came out at 1. Further, the “DESeq log2fc, HOGA1” value in the data set on hepatocytes [4] (log 2 fold change in HOGA1 gene expression, DESeq) amounted to 1.04. Further, in the data set with hepatocytes [4] (log 2 fold change in HPGD gene expression, Cuffdiff), the “Cuffdiff log2fc, HPGD” value was 2.07. Besides, in the data set with hepatocytes [4] (log 2 fold change in HPGD gene expression, DESeq), the “DESeq log2fc, HPGD” value came out at 2.29. The “Cuffdiff log2fc, NCF2” value in the data set on hepatocytes [4] (log 2 fold change in NCF2 gene expression, Cuffdiff) was −1.71. The “DESeq log2fc, NCF2” value in the data set with hepatocytes [4] (log 2 fold change in NCF2 gene expression, DESeq) is listed as −1.6. The “Cuffdiff log2fc, RMRP” value in the data set with hepatocytes [4] (log 2 fold change in RMRP gene expression, Cuffdiff) is −1.43. Also, the “DESeq log2fc, RMRP” value with hepatocytes [4] (log 2 fold change in RMRP gene expression, DESeq) is −0.78. The “Cuffdiff log2fc, SLC37A4” value in the data set with hepatocytes [4] (log 2 fold change in SLC37A4 gene expression, Cuffdiff) came to 1.16. Also, the “DESeq log2fc, SLC37A4” value with hepatocytes [4] (log 2 fold change in SLC37A4 gene expression, DESeq) turned out to be 1.18. Also, the “Cuffdiff log2fc, TAT” value in the data set on hepatocytes [4] (log 2 fold change in TAT gene expression, Cuffdiff) turned out to be 2.37. In the data set on hepatocytes [4] (log 2 fold change in TAT gene expression, DESeq), the “DESeq log2fc, TAT” value was 2.48. For the same compound, the “Cuffdiff log2fc, TDO2” value in the data set with hepatocytes [4] (log 2 fold change in TDO2 gene expression, Cuffdiff) is given as 1.05. In addition, the “DESeq log2fc, TDO2” value in the data set with hepatocytes [4] (log 2 fold change in TDO2 gene expression, DESeq) amounted to 1.21. In addition, the “qRT-PCR log2fc, AMACR” value in the data set with hepatocytes [5] (log 2 fold change in AMACR gene expression) is −0.35. Further, the “qRT-PCR log2fc, ARG1” value in the data set with hepatocytes [5] (log 2 fold change in ARG1 gene expression) came out at 1.53. Also, in the data set with hepatocytes [5] (log 2 fold change in CA2 gene expression), the “qRT-PCR log2fc, CA2” value was −0.1. The “qRT-PCR log2fc, CIDEC” value in the data set on hepatocytes [5] (log 2 fold change in CIDEC gene expression) was 1.1. The “qRT-PCR log2fc, CPS1” value in the data set with hepatocytes [5] (log 2 fold change in CPS1 gene expression) is 0.61. Moreover, the “qRT-PCR log2fc, ENO3” value in the data set on hepatocytes [5] (log 2 fold change in ENO3 gene expression) is −0.03. In addition, in the data set with hepatocytes [5] (log 2 fold change in G6PC gene expression), the “qRT-PCR log2fc, G6PC” value came out at 0.76. Moreover, the “qRT-PCR log2fc, GYS2” value in the data set with hepatocytes [5] (log 2 fold change in GYS2 gene expression) is reported as 0.71. Also, in the data set on hepatocytes [5] (log 2 fold change in HGD gene expression), the “qRT-PCR log2fc, HGD” value is 0.5. In the data set on hepatocytes [5] (log 2 fold change in HOGA1 gene expression), the “qRT-PCR log2fc, HOGA1” value is 1.47. Besides, the “qRT-PCR log2fc, HPGD” value in the data set with hepatocytes [5] (log 2 fold change in HPGD gene expression) was 0.36. Besides, in the data set with hepatocytes [5] (log 2 fold change in NCF2 gene expression), the “qRT-PCR log2fc, NCF2” value is reported as −0.4. The “qRT-PCR log2fc, RMRP” value in the data set on hepatocytes [5] (log 2 fold change in RMRP gene expression) is listed as −0.33. The “qRT-PCR log2fc, SLC37A4” value with hepatocytes [5] (log 2 fold change in SLC37A4 gene expression) is recorded as 0.99. The “qRT-PCR log2fc, TAT” value in the data set on hepatocytes [5] (log 2 fold change in TAT gene expression) came to 3.26. The “qRT-PCR log2fc, TDO2” value in the data set with hepatocytes [5] (log 2 fold change in TDO2 gene expression) is listed as 1.41.
For the compound “RPS19_2 (guide CTTGACGGTATCCACCCATT; chemistry not fully specified; listed as Homo sapiens)”, in data set [1], the “RQ, BAG1” value was determined as 1.08; the “RQ, BAX” value was determined as 1.29; the “RQ, GATA1” value was 0.87; the “RQ, GATA2” value is recorded as 1.23. In addition, in data set [1], the “RQ, HBB” value was 0.55; the “RQ, MDM2” value was determined as 1.38; the “RQ, RPL11” value is on record as 1.46; the “RQ, RPS19” value worked out at 0.77. Besides, in data set [1], the “RQ, p21” value worked out at 1.73 and the “RQ, p53” value came out at 1.12.
